By IC50 is commonly meant the point on the concentration scale where inhibition reaches its midpoint.

Results on eleven compounds are retold here after patent US8288385B2, “6-(3-aza-bicyclo[3.1.0]hex-3-yl)-2-phenyl-pyrimidines” (Actelion Pharmaceuticals Ltd., priority 2009, dated 2012).

The target of the test is T1, human P2Y12 receptor (Homo sapiens, UniProt Q9H244).
T1 construct: expressed in transfected cells; host or cells: Chinese Hamster Ovary (CHO) cells
Briefly: P2Y12 receptor binding assay. To be noted: CHO cells with recombinant expression of the human P2Y12 receptor; tritium-labeled 2-methyl-S-ADP; RT, 2 hours. The protocol: P2Y12 Receptor Binding Assay
Chinese Hamster Ovary (CHO) cells with recombinant expression of the human P2Y12 receptor were cultured in 24 well cell-culture plates. Cells were washed three times with binding buffer (50 mM Tris pH 7.4, 100 mM NaCl, 1 mM EDTA, 0.5% BSA). The cells were then incubated with 0.5 ml per well binding buffer containing tritium-labeled 2-methyl-thio-adenosine 5′-diphosphate (2-methyl-S-ADP) (between 100,000 and 300,000 dpm per well) and various concentrations of test compounds. After incubation at RT for 2 hours, cells were washed three times with binding buffer. Then, cells were solubilized by addition of 0.5 ml solubilization buffer (SDS, NaOH, EDTA). The content of each well was then transferred into beta-counter vials and 2.0 ml of Ultima Gold Scintillation liquid was added.

T1 sequence (Q9H244 whole entry): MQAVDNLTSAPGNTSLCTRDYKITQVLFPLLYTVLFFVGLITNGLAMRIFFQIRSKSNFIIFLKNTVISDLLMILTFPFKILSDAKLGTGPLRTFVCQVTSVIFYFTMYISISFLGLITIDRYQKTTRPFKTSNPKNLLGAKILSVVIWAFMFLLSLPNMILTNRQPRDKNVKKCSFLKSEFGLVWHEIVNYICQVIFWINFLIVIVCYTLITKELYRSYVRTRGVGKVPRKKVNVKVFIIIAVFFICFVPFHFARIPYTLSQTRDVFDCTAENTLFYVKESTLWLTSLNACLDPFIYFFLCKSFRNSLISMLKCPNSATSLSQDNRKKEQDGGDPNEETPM

As for `CCCCOC(=O)N1CCN(C(=O)[C@@H](NC(=O)c2cc(N3C[C@@H]4[C@H](C3)[C@H]4C(=O)O)nc(-c3ccccc3)n2)C(C)(C)C)CC1` [Example 44, (1α,5α,6α)-3-{6-[(S)-1-(4-Butoxycarbonyl-piperazine-1-carbonyl)-2,2-dimethyl-propylcarbamoyl]-2-phenyl-pyrimidin-4-yl}-3-aza-bicyclo[3.1.0]hexane-6-carboxylic acid], the IC50 was 903 nM. For the compound `CCCCOC(=O)N1CCN(C(=O)[C@H](Cc2ccccc2)NC(=O)c2cc(N3C[C@@H]4[C@H](C3)[C@@H]4C(=O)O)nc(-c3ccccc3)n2)CC1` [Example 45, (1α,5α,6β)-3-{6-[(S)-1-Benzyl-2-(4-butoxycarbonyl-piperazin-1-yl)-2-oxo-ethylcarbamoyl]-2-phenyl-pyrimidin-4-yl}-3-aza-bicyclo[3.1.0]hexane-6-carboxylic acid], the half-inhibitory concentration (IC50) came out at 255 nM. With `CCCCOC(=O)N1CCN(C(=O)[C@H](Cc2ccccc2)NC(=O)c2cc(N3CC4C(C3)C4C(=O)O)nc(-c3ccccc3)n2)CC1` (stereo partly drawn) [Example 46, (1α,5α,6α)-3-{6-[(S)-1-Benzyl-2-(4-butoxycarbonyl-piperazin-1-yl)-2-oxo-ethylcarbamoyl]-2-phenyl-pyrimidin-4-yl}-3-aza-bicyclo[3.1.0]hexane-6-carboxylic acid], the half-maximal inhibitory concentration (IC50) amounted to 961 nM. To `CCCCOC(=O)N1CCN(C(=O)[C@@H](NC(=O)c2cc(N3C[C@@H]4[C@H](C3)[C@@H]4C(=O)O)nc(-c3ccccc3F)n2)C(C)C)CC1` [Example 47, (1α,5α,6β)-3-[6-[(S)-1-(4-Butoxycarbonyl-piperazine-1-carbonyl)-2-methyl-propylcarbamoyl]-2-(2-fluoro-phenyl)-pyrimidin-4-yl]-3-aza-bicyclo[3.1.0]hexane-6-carboxylic acid] belongs 12 nM; to `CCCCOC(=O)N1CCN(C(=O)[C@H](CC#N)NC(=O)c2cc(N3C[C@@H]4[C@H](C3)[C@@H]4C(=O)O)nc(-c3ccccc3)n2)CC1` [Example 48, (1α,5α,6β)-3-{6-[(S)-1-(4-Butoxycarbonyl-piperazine-1-carbonyl)-2-cyano-ethylcarbamoyl]-2-phenyl-pyrimidin-4-yl}-3-aza-bicyclo[3.1.0]hexane-6-carboxylic acid], 74 nM; to `CCCCOC(=O)N1CCN(C(=O)[C@H](CCc2nnn[nH]2)NC(=O)c2cc(N3C[C@@H]4[C@H](C3)[C@@H]4C(=O)O)nc(-c3ccccc3)n2)CC1` [Example 49, (1α,5α,6β)-3-{6-[(S)-1-(4-Butoxycarbonyl-piperazine-1-carbonyl)-3-(1H-tetrazol-5-yl)-propylcarbamoyl]-2-phenyl-pyrimidin-4-yl}-3-aza-bicyclo[3.1.0]hexane-6-carboxylic acid], under 3.2 nM. Consider `CCCCOC(=O)N1CCN(C(=O)[C@H](CP(=O)(OCC)OCC)NC(=O)c2cc(N3C[C@@H]4[C@H](C3)[C@H]4C(=O)OCC)nc(-c3ccccc3)n2)CC1` [Example 50, (1α,5α,6α)-3-{6-[(R)-2-(4-Butoxycarbonyl-piperazin-1-yl)-1-(diethoxy-phosphorylmethyl)-2-oxo-ethylcarbamoyl]-2-phenyl-pyrimidin-4-yl}-3-aza-bicyclo[3.1.0]hexane-6-carboxylic acid ethyl ester], for which the concentration for half-maximal inhibition (IC50) was found to be 383 nM. As for `CCCCOC(=O)N1CCN(C(=O)[C@H](CP(=O)(O)O)NC(=O)c2cc(N3C[C@@H]4[C@H](C3)[C@H]4C(=O)OCC)nc(-c3ccccc3)n2)CC1` [Example 51, (1α,5α,6α)-3-{6-[(R)-2-(4-Butoxycarbonyl-piperazin-1-yl)-2-oxo-1-phosphonomethyl-ethylcarbamoyl]-2-phenyl-pyrimidin-4-yl}-3-aza-bicyclo[3.1.0]hexane-6-carboxylic acid ethyl ester], the figure is 2.5 nM; as for `CCCCOC(=O)N1CCN(C(=O)[C@H](CP(=O)(OCOC(C)=O)OCOC(C)=O)NC(=O)c2cc(N3C[C@@H]4[C@H](C3)[C@H]4C(=O)OCC)nc(-c3ccccc3)n2)CC1` [Example 52, (1α,5α,6α)-3-{6-[(R)-1-(Bis-acetoxymethoxy-phosphorylmethyl)-2-(4-butoxycarbonyl-piperazin-1-yl)-2-oxo-ethylcarbamoyl]-2-phenyl-pyrimidin-4-yl}-3-aza-bicyclo[3.1.0]hexane-6-carboxylic acid ethyl ester], 4 nM.

On to `CCCCOC(=O)N1CCN(C(=O)[C@H](CP(=O)(N[C@@H](C)C(=O)OCC)N[C@@H](C)C(=O)OCC)NC(=O)c2cc(N3C[C@@H]4[C@H](C3)[C@H]4C(=O)OCC)nc(-c3ccccc3)n2)CC1` [Example 53, N,N′-Bis-((S)-1-Ethoxycarbonylethyl)-(R)-2-[(4-[(1α,5α,6α)-6-ethoxycarbonyl-3-aza-bicyclo[3.1.0]hex-3-yl]-2-phenyl-pyrimidin-6-carbonyl)-amino]-3-oxo-3-(4-butoxy-carbonyl-piperazin-1-yl)-propyl-phosphonic acid diamide], for which the 50% inhibitory concentration (IC50) was found to be 110 nM.

Regarding `CCCCOC(=O)N1CCN(C(=O)[C@H](CP(=O)(OCOC(=O)OCC)OCOC(=O)OCC)NC(=O)c2cc(N3C[C@@H]4[C@H](C3)[C@H]4C(=O)OCC)nc(-c3ccccc3)n2)CC1` [Example 54, (1α,5α,6α)-3-{6-[(R)-1-(Bis-ethoxycarbonyloxymethoxy-phosphorylmethyl)-2-(4-butoxycarbonyl-piperazin-1-yl)-2-oxo-ethylcarbamoyl]-2-phenyl-pyrimidin-4-yl}-3-aza-bicyclo[3.1.0]hexane-6-carboxylic acid ethyl ester], the IC50 is 15 nM.
